{
  "source": "ChEMBL document CHEMBL4665838",
  "about": "“Identification of a novel orally bioavailable NLRP3 inflammasome inhibitor” (Bioorg Med Chem Lett, 2020)",
  "key": {"[1]": {"biological_target": "T1, NACHT, LRR and PYD domains-containing protein 3 (Homo sapiens, UniProt Q96P20)", "T1 sequence (Q96P20 whole entry, the tested form may be a part)": "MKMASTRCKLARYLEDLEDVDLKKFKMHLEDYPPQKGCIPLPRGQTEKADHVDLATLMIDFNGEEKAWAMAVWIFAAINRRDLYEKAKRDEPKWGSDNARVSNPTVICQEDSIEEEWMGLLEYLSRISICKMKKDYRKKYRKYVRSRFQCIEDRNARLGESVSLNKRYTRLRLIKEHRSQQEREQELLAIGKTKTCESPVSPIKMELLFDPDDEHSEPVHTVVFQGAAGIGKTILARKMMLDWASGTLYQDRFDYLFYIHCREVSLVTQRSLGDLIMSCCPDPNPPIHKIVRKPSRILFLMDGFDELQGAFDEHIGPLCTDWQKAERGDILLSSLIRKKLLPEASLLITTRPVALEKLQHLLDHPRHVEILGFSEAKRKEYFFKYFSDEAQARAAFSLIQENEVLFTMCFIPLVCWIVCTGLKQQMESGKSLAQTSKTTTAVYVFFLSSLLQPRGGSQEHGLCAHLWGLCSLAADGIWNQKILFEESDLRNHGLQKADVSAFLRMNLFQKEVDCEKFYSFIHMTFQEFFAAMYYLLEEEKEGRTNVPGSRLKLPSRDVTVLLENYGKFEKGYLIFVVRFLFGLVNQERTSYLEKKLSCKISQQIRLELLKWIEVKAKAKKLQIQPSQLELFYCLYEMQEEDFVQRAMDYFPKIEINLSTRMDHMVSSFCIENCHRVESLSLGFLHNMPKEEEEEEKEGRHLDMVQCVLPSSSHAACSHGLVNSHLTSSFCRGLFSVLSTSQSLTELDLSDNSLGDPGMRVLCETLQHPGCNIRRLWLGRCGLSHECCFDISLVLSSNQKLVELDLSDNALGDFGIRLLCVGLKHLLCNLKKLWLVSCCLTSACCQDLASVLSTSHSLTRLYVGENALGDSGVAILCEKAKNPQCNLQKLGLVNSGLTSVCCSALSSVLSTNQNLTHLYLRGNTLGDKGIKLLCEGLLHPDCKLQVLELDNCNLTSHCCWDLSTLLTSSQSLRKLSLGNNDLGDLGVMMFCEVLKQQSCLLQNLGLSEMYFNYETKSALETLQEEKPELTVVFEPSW", "experiment": "Inhibition of NLRP3 in human THP1 cells assessed as inhibition of IL-1beta production at 1 uM relative to control", "assay_type": "cell-based", "conditions": "THP-1"}, "[2]": {"biological_target": "T1, NACHT, LRR and PYD domains-containing protein 3", "experiment": "Inhibition of NLRP3 in human THP1 cells assessed as inhibition of IL-1beta production", "assay_type": "cell-based, THP-1"}, "[3]": {"experiment": "Oral bioavailability in C57BL/6 mouse at 3 mg/kg", "assay_type": "ADME, organism-based", "conditions": "in vivo"}, "[4]": {"experiment": "Volume of distribution at steady state in C57BL/6 mouse at 1 mg/kg, iv", "assay_type": "ADME, organism-based", "conditions": "in vivo, read-out: Vdss"}, "[5]": {"experiment": "Cmax in C57BL/6 mouse at 3 mg/kg, po", "assay_type": "ADME, organism-based", "set-up": "route oral, dose 3 mg/kg", "conditions": "in vivo"}, "[6]": {"experiment": "AUC (0 to t) in C57BL/6 mouse at 1 mg/kg, iv", "assay_type": "ADME, organism-based", "set-up": "dose 1 mg/kg", "conditions": "in vivo"}, "[7]": {"experiment": "MRT in C57BL/6 mouse at 1 mg/kg, iv", "assay_type": "ADME, organism-based", "conditions": "in vivo"}, "[8]": {"experiment": "Terminal half life in C57BL/6 mouse at 1 mg/kg, iv", "assay_type": "ADME, organism-based", "conditions": "in vivo, read-out: beta t1/2 (converted)"}, "[9]": {"experiment": "Tmax in C57BL/6 mouse at 3 mg/kg, po", "assay_type": "ADME, organism-based", "conditions": "in vivo"}, "[10]": {"experiment": "AUC (0 to t) in C57BL/6 mouse at 3 mg/kg, po", "assay_type": "ADME, organism-based", "set-up": "dose 3 mg/kg", "conditions": "in vivo"}, "[11]": {"experiment": "Terminal half life in C57BL/6 mouse at 3 mg/kg, po", "assay_type": "ADME, organism-based", "conditions": "in vivo, read-out: beta t1/2 (converted)"}, "[12]": {"experiment": "Clearance in C57BL/6 mouse at 1 mg/kg, iv", "assay_type": "ADME, organism-based", "conditions": "in vivo"}, "[13]": {"experiment": "MRT in C57BL/6 mouse at 3 mg/kg, po", "assay_type": "ADME, organism-based", "conditions": "in vivo"}, "[14]": {"experiment": "Initial plasma concentration in C57BL/6 mouse at 1 mg/kg, iv", "assay_type": "ADME, organism-based"}, "Cytochrome P450 2C8": {"biological_target": "T2, Cytochrome P450 2C8 (Homo sapiens, UniProt P10632)", "T2 sequence (P10632 whole entry)": "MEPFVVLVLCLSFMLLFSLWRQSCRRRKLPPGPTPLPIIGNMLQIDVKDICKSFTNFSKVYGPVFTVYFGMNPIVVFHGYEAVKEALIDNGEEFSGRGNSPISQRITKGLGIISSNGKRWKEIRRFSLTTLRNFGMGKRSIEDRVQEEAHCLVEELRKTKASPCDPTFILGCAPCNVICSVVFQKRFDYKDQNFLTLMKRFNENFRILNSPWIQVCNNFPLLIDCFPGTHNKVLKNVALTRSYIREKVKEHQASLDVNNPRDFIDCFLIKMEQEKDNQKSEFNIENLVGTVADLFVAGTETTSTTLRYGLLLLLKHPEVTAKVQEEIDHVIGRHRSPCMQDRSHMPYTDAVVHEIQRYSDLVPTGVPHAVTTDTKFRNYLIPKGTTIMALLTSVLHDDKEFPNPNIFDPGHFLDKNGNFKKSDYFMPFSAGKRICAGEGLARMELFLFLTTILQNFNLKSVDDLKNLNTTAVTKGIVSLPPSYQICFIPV", "experiment": "Inhibition of CYP2C8 (unknown origin)", "assay_type": "ADME"}, "[15]": {"biological_target": "T3, Interferon-inducible protein AIM2 (Homo sapiens) (UniProt O14862)", "T3 sequence (whole entry)": "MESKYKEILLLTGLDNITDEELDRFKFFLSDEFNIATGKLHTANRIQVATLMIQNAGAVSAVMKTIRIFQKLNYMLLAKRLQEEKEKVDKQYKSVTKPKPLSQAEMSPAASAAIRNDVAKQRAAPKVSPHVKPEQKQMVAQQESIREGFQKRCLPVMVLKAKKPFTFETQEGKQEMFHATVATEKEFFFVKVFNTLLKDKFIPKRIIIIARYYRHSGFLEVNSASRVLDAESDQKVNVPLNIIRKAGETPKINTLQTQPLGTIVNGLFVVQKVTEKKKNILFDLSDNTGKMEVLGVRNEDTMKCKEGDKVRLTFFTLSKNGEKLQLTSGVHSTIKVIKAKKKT", "experiment": "Inhibition of AIM2 inflammasome (unknown origin)"}, "[16]": {"experiment": "Metabolic stability in human liver microsomes", "assay_type": "ADME, Microsome"}, "[17]": {"experiment": "Metabolic stability in rat liver microsomes", "assay_type": "ADME, Microsome"}, "[18]": {"experiment": "Metabolic stability in mouse liver microsomes", "assay_type": "ADME, Microsome"}, "[19]": {"experiment": "Permeability in human Caco2 cells", "assay_type": "ADME, cell-based", "conditions": "caco-2"}, "[20]": {"experiment": "Metabolic stability in dog liver microsomes", "assay_type": "ADME, Canis lupus familiaris, Microsome"}, "Cytochrome P450 2C9": {"biological_target": "Cytochrome P450 2C9 (Homo sapiens, UniProt P11712)", "sequence (P11712 whole entry)": "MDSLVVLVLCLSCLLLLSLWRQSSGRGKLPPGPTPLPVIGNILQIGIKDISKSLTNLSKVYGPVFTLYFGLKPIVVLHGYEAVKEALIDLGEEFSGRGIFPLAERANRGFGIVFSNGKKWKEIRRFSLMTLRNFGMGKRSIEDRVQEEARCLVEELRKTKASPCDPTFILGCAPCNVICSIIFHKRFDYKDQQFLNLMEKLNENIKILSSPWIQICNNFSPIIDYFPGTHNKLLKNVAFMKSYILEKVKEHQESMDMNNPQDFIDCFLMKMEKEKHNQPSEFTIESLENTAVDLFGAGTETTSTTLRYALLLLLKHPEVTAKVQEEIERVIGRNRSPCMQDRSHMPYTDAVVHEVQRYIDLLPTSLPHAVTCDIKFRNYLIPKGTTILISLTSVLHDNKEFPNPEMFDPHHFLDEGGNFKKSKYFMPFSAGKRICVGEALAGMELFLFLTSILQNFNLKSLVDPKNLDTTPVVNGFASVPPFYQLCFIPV", "experiment": "Inhibition of CYP2C9 (unknown origin)", "assay_type": "ADME"}, "[21]": {"experiment": "Aqueous solubility of the compound", "assay_type": "physicochemical", "conditions": "buffer"}},
  "note": "The source made the active and inactive calls. The rule behind the calls is not given here.",
  "data": [
    {"compound": "CC(C)c1cccc(C(C)C)c1NC(=O)NS(=O)(=O)/C=C/c1nccs1", "values": [
      {"measurement": "inhibition", "setting": "[1]", "result": "< 50", "unit": "%"},
      {"measurement": "IC50", "setting": "[2]", "result": "> 1", "unit": "µM"}
    ]},
    {"compound": "O=C(Nc1cc(C(F)(F)F)ccc1C(F)(F)F)NS(=O)(=O)/C=C/c1nccs1", "values": [
      {"measurement": "inhibition", "setting": "[1]", "result": "< 50", "unit": "%"},
      {"measurement": "IC50", "setting": "[2]", "result": "> 1", "unit": "µM"}
    ]},
    {"compound": "O=C(Nc1ccccc1C(F)(F)F)NS(=O)(=O)/C=C/c1nccs1", "values": [
      {"measurement": "inhibition", "setting": "[1]", "result": "< 50", "unit": "%"},
      {"measurement": "IC50", "setting": "[2]", "result": "> 1", "unit": "µM"}
    ]},
    {"compound": "O=C(Nc1c(F)cccc1C(F)(F)F)NS(=O)(=O)/C=C/c1nccs1", "values": [
      {"measurement": "inhibition", "setting": "[1]", "result": "< 50", "unit": "%"},
      {"measurement": "IC50", "setting": "[2]", "result": "> 1", "unit": "µM"}
    ]},
    {"compound": "COc1cccc(OC)c1NC(=O)NS(=O)(=O)/C=C/c1nccs1", "values": [
      {"measurement": "inhibition", "setting": "[1]", "result": "< 50", "unit": "%"},
      {"measurement": "IC50", "setting": "[2]", "result": "> 1", "unit": "µM"}
    ]},
    {"compound": "CC(C)(O)c1coc(S(=O)(=O)NC(=O)Nc2c3c(cc4c2CCC4)CCC3)c1", "values": [
      {"measurement": "F", "setting": "[3]", "result": 77, "unit": "%"},
      {"measurement": "Vd", "setting": "[4]", "result": 0.15, "unit": "L/kg"},
      {"measurement": "Cmax", "setting": "[5]", "result": 11700, "unit": "ng/mL"},
      {"measurement": "AUC(0-t)", "setting": "[6]", "result": 20700, "unit": "ng·h/mL"},
      {"measurement": "MRT", "setting": "[7]", "result": 3.22, "unit": "h"},
      {"measurement": "half-life", "setting": "[8]", "result": 3.97, "unit": "h"},
      {"measurement": "Tmax", "setting": "[9]", "result": 0.25, "unit": "h"},
      {"measurement": "AUC(0-t)", "setting": "[10]", "result": 46900, "unit": "ng·h/mL"},
      {"measurement": "half-life", "setting": "[11]", "result": 1.32, "unit": "h"},
      {"measurement": "clearance", "setting": "[12]", "result": 0.8, "unit": "mL/min/kg"},
      {"measurement": "MRT", "setting": "[13]", "result": 3.07, "unit": "h"},
      {"measurement": "C0", "setting": "[14]", "result": 22200, "unit": "ng/mL"}
    ]},
    {"compound": "Cc1cc(C)c(C)c(NC(=O)NS(=O)(=O)/C=C/c2nccs2)c1C", "values": [
      {"measurement": "inhibition", "setting": "[1]", "result": "< 50", "unit": "%"},
      {"measurement": "IC50", "setting": "[2]", "result": "> 1", "unit": "µM"}
    ]},
    {"compound": "Cc1cnc(/C=C/S(=O)(=O)NC(=O)Nc2c3c(cc4c2CCC4)CCC3)s1", "values": [
      {"measurement": "IC50", "setting": "[2]", "result": 1.06, "unit": "µM"}
    ]},
    {"compound": "O=C(Nc1c2c(cc3c1CCC3)CCC2)NS(=O)(=O)/C=C/c1nccs1", "values": [
      {"measurement": "F", "setting": "[3]", "result": 99, "unit": "%"},
      {"measurement": "inhibition (INH)", "setting": "Cytochrome P450 2C8", "result": "Active"},
      {"measurement": "Vd", "setting": "[4]", "result": 0.2, "unit": "L/kg"},
      {"measurement": "inhibition", "setting": "[15]", "result": "inactive"},
      {"measurement": "Cmax", "setting": "[5]", "result": 8490, "unit": "ng/mL"},
      {"measurement": "AUC(0-t)", "setting": "[6]", "result": 16500, "unit": "ng·h/mL"},
      {"measurement": "Stabilty", "setting": "[16]", "result": "Stable"},
      {"measurement": "Stabilty", "setting": "[17]", "result": "Stable"},
      {"measurement": "MRT", "setting": "[7]", "result": 3.23, "unit": "h"},
      {"measurement": "Stabilty", "setting": "[18]", "result": "Stable"},
      {"measurement": "half-life", "setting": "[8]", "result": 2.35, "unit": "h"},
      {"measurement": "permeability", "setting": "[19]", "result": "Permeable"},
      {"measurement": "Stabilty", "setting": "[20]", "result": "Stable"},
      {"measurement": "Tmax", "setting": "[9]", "result": 0.25, "unit": "h"},
      {"measurement": "AUC(0-t)", "setting": "[10]", "result": 48900, "unit": "ng·h/mL"},
      {"measurement": "half-life", "setting": "[11]", "result": 2.86, "unit": "h"},
      {"measurement": "clearance", "setting": "[12]", "result": 1.01, "unit": "mL/min/kg"},
      {"measurement": "MRT", "setting": "[13]", "result": 4.9, "unit": "h"},
      {"measurement": "inhibition (INH)", "setting": "Cytochrome P450 2C9", "result": "Active"},
      {"measurement": "solubility", "setting": "[21]", "result": "Soluble"},
      {"measurement": "C0", "setting": "[14]", "result": 6270, "unit": "ng/mL"}
    ]},
    {"compound": "O=C(Nc1c2c(cc3c1CCC3)CCC2)NS(=O)(=O)/C=C/c1nc2ccccc2s1", "values": [
      {"measurement": "inhibition", "setting": "[1]", "result": "< 50", "unit": "%"},
      {"measurement": "IC50", "setting": "[2]", "result": "> 1", "unit": "µM"}
    ]},
    {"compound": "O=C(Nc1c2c(cc3c1CCC3)CCC2)NS(=O)(=O)/C=C/c1ccccn1", "values": [
      {"measurement": "IC50", "setting": "[2]", "result": 1, "unit": "µM"}
    ]},
    {"compound": "O=C(Nc1c2c(cc3c1OCC3)OCC2)NS(=O)(=O)/C=C/c1nccs1", "values": [
      {"measurement": "inhibition", "setting": "[1]", "result": "< 50", "unit": "%"}
    ]}
  ]
}
